Laboratory results: ChEMBL document CHEMBL1201862, “PubChem BioAssay data set” (2004)
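Method: 48-hour compound exposure of cells in 96-well plates, five concentrations, linear interpolation of endpoints. At the GI50, growth is halved.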 Calls of active or inactive are those of the source. No stated cut-off is given here; in the data, active = GI50 up to about 1.1 µM and inactive = higher.

Key:
Test in all cases: DTP human tumour cell line panel, 48 h
EKVX = test system: EKVX
SK-OV-3 = test system: SK-OV-3
SF-539 = test system: SF-539
ACHN = test system: ACHN
786-0 = test system: 786-0
TK-10 = test system: TK-10
SK-MEL-5 = test system: SK-MEL-5
NCI-H226 = test system: NCI-H226
Malme-3M = test system: Malme-3M
IGROV-1 = test system: IGROV-1
HT-29 = test system: HT-29
COLO 205 = test system: COLO 205
HCT-116 = test system: HCT-116
RXF 631 = test system: RXF 631
OVCAR-4 = test system: OVCAR-4
UACC-62 = test system: UACC-62
RPMI-8226 = test system: RPMI-8226
HOP-62 = test system: HOP-62
OVCAR-3 = test system: OVCAR-3
SW-620 = test system: SW-620
SNB-19 = test system: SNB-19
SK-MEL-2 = test system: SK-MEL-2
LXFL 529 = test system: LXFL 529
UO-31 = test system: UO-31
KM12 = test system: KM12
U-251 = test system: U-251
SN12C = test system: SN12C
SNB-75 = test system: SNB-75
LOX IMVI = test system: LOX IMVI
CCRF-CEM = test system: CCRF-CEM
NCI-H460 = test system: NCI-H460
CAKI-1 = test system: CAKI-1
HL-60 = test system: HL-60
HOP-92 = test system: HOP-92
OVCAR-8 = test system: OVCAR-8
SF-295 = test system: SF-295
SF-268 = test system: SF-268
HOP-18 = test system: HOP-18
DMS-273 = test system: DMS-273
M14 = test system: M14
MOLT-4 = test system: MOLT-4
XF498 = test system: XF498
NCI-H23 = test system: NCI-H23
DMS-114 = test system: DMS-114
A498 = test system: A498
HCT-15 = test system: HCT-15
KM-20L2 = test system: KM-20L2
OVCAR-5 = test system: OVCAR-5
A549 = test system: A549
NCI-H522 = test system: NCI-H522
RXF 393 = test system: RXF 393
K562 = test system: K562
UACC-257 = test system: UACC-257
SK-MEL-28 = test system: SK-MEL-28
SNB-78 = test system: SNB-78
HCC 2998 = test system: HCC 2998
M19-MEL = test system: M19-MEL
DLD-1 = test system: DLD-1

## CN1CCCC2[C@@H]3CCC4=C(O)C(=O)CC[C@]4(C)C3CC[C@@]21C (stereo partly drawn)
EKVX
  GI50: > 100 µM (inactive)
SK-OV-3
  GI50: > 100 µM (inactive)
SF-539
  GI50: > 100 µM (inactive)
ACHN
  GI50: > 100 µM (inactive)
786-0
  GI50: > 100 µM (inactive)
TK-10
  GI50: > 100 µM (inactive)
SK-MEL-5
  GI50: > 100 µM (inactive)
NCI-H226
  GI50: > 100 µM (inactive)
Malme-3M
  GI50: > 100 µM (inactive)
IGROV-1
  GI50: > 100 µM (inactive)
HT-29
  GI50: > 100 µM (inactive)
COLO 205
  GI50: > 100 µM (inactive)
HCT-116
  GI50: > 100 µM (inactive)
RXF 631
  GI50: > 100 µM (inactive)
OVCAR-4
  GI50: > 100 µM (inactive)
UACC-62
  GI50: > 100 µM (inactive)
RPMI-8226
  GI50: > 100 µM (inactive)
HOP-62
  GI50: > 100 µM (inactive)
OVCAR-3
  GI50: > 100 µM (inactive)
SW-620
  GI50: > 100 µM (inactive)
SNB-19
  GI50: > 100 µM (inactive)
SK-MEL-2
  GI50: 1.4 µM (inactive)
LXFL 529
  GI50: > 100 µM (inactive)
UO-31
  GI50: > 100 µM (inactive)
KM12
  GI50: > 100 µM (inactive)
U-251
  GI50: > 100 µM (inactive)
SN12C
  GI50: > 100 µM (inactive)
SNB-75
  GI50: > 100 µM (inactive)
LOX IMVI
  GI50: > 100 µM (inactive)
CCRF-CEM
  GI50: > 100 µM (inactive)
NCI-H460
  GI50: > 100 µM (inactive)
CAKI-1
  GI50: > 100 µM (inactive)
HL-60
  GI50: > 100 µM (inactive)
HOP-92
  GI50: > 100 µM (inactive)
OVCAR-8
  GI50: > 100 µM (inactive)
SF-295
  GI50: > 100 µM (inactive)
SF-268
  GI50: > 100 µM (inactive)
HOP-18
  GI50: > 100 µM (inactive)
DMS-273
  GI50: > 100 µM (inactive)
M14
  GI50: > 100 µM (inactive)
MOLT-4
  GI50: > 100 µM (inactive)
XF498
  GI50: > 100 µM (inactive)
NCI-H23
  GI50: > 100 µM (inactive)
DMS-114
  GI50: > 100 µM (inactive)
A498
  GI50: > 100 µM (inactive)
HCT-15
  GI50: > 100 µM
KM-20L2
  GI50: > 100 µM (inactive)
OVCAR-5
  GI50: > 100 µM (inactive)
A549
  GI50: > 100 µM (inactive)
NCI-H522
  GI50: > 100 µM (inactive)
RXF 393
  GI50: > 100 µM (inactive)
K562
  GI50: > 100 µM (inactive)
UACC-257
  GI50: > 100 µM (inactive)
SK-MEL-28
  GI50: > 100 µM (inactive)

## O=S(O)CCCCSSCCCCS(=O)(=O)S
EKVX
  GI50: 19.4 µM (inactive)
SK-OV-3
  GI50: > 100 µM (inactive)
SF-539
  GI50: 98.6 µM (inactive)
ACHN
  GI50: 72.6 µM (inactive)
786-0
  GI50: > 100 µM (inactive)
TK-10
  GI50: 42.6 µM (inactive)
SK-MEL-5
  GI50: 14.2 µM (inactive)
Malme-3M
  GI50: 17.6 µM (inactive)
IGROV-1
  GI50: > 100 µM (inactive)
HT-29
  GI50: 38.6 µM (inactive)
COLO 205
  GI50: 48.5 µM (inactive)
HCT-116
  GI50: > 100 µM (inactive)
RXF 631
  GI50: 51.9 µM (inactive)
OVCAR-4
  GI50: 25.5 µM (inactive)
UACC-62
  GI50: 18 µM (inactive)
HOP-62
  GI50: > 100 µM (inactive)
OVCAR-3
  GI50: 49.2 µM (inactive)
SW-620
  GI50: 37.7 µM (inactive)
SNB-19
  GI50: > 100 µM (inactive)
SK-MEL-2
  GI50: 35.7 µM (inactive)
LXFL 529
  GI50: 22.2 µM (inactive)
UO-31
  GI50: 51.3 µM (inactive)
KM12
  GI50: 67.6 µM (inactive)
U-251
  GI50: > 100 µM (inactive)
SN12C
  GI50: 71 µM (inactive)
SNB-75
  GI50: 10.9 µM (inactive)
LOX IMVI
  GI50: 27.4 µM (inactive)
CCRF-CEM
  GI50: 13.8 µM (inactive)
NCI-H460
  GI50: 64.3 µM (inactive)
CAKI-1
  GI50: > 100 µM (inactive)
SNB-78
  GI50: 35.1 µM (inactive)
OVCAR-8
  GI50: 37.8 µM (inactive)
SF-295
  GI50: 35.5 µM (inactive)
SF-268
  GI50: 35.6 µM (inactive)
HOP-18
  GI50: 84.3 µM (inactive)
DMS-273
  GI50: 50.9 µM (inactive)
M14
  GI50: 15.7 µM (inactive)
HCC 2998
  GI50: > 100 µM (inactive)
M19-MEL
  GI50: 12.1 µM (inactive)
MOLT-4
  GI50: 2 µM (inactive)
XF498
  GI50: 15.3 µM (inactive)
NCI-H23
  GI50: 53.6 µM (inactive)
DMS-114
  GI50: 39.4 µM (inactive)
A498
  GI50: > 100 µM (inactive)
HCT-15
  GI50: 59 µM
KM-20L2
  GI50: > 100 µM (inactive)
OVCAR-5
  GI50: > 100 µM (inactive)
A549
  GI50: 40.7 µM (inactive)
DLD-1
  GI50: > 100 µM (inactive)
NCI-H522
  GI50: 19.3 µM (inactive)
RXF 393
  GI50: 43.3 µM (inactive)
K562
  GI50: 32.1 µM (inactive)
UACC-257
  GI50: 21.1 µM (inactive)
SK-MEL-28
  GI50: 27 µM (inactive)
